Consider 2 molecules from publication PMC12023779, “Characterization, thermostable mechanism, and molecular docking of a novel glucose-tolerant β-glucosidase/β-galactosidase from the GH1 family isolated from Rehai hot spring” (Frontiers in Microbiology, 2025).

Assay [1] has as its system T1, Y50Bg4.
T1 construct: expressed in E. coli DH5alpha, Ni-NTA purified; primers encode MKIDGGLKC... at N-end and ...EIIKKYKE at C-end
The assay is described as follows: glucose oxidase-peroxidase assay, Michaelis-Menten non-linear fit. Type of assay: biochemical, uncultured bacterium. The note with it: sodium citrate buffer pH 6.0, 60°C; 0-20 mg/mL substrate. From the text: glucose oxidase-peroxidase assay, Michaelis-Menten non-linear fit on Y50Bg4

Assay [2] relates to T1, Y50Bg4. Nature of the assay: p-nitrophenol release at […] nm, Michaelis-Menten non-linear fit. The class given is biochemical, uncultured bacterium. As to conditions: sodium citrate buffer pH 6.0, 60°C; 0-2 mM substrate.

As for `OC[C@H]1O[C@@H](O[C@H]2[C@H](O)[C@@H](O)C(O)O[C@@H]2CO)[C@H](O)[C@@H](O)[C@@H]1O` (some centres unmarked) [cellobiose], the Km – broadly, the concentration of substrate that gives half-maximal velocity – in the assay with Y50Bg4 [1] is reported as 4.69 mg/mL. Take `O=[N+]([O-])c1ccc(O[C@@H]2O[C@H](CO)[C@@H](O)[C@H](O)[C@H]2O)cc1` [p-nitrophenyl-β-D-glucopyranoside]: the Km in the assay with Y50Bg4 [2] was determined as 530 µM.
